In assay [1] the target is T1, Acetylcholinesterase (Rattus norvegicus, UniProt P37136).
T1 sequence (P37136 whole entry): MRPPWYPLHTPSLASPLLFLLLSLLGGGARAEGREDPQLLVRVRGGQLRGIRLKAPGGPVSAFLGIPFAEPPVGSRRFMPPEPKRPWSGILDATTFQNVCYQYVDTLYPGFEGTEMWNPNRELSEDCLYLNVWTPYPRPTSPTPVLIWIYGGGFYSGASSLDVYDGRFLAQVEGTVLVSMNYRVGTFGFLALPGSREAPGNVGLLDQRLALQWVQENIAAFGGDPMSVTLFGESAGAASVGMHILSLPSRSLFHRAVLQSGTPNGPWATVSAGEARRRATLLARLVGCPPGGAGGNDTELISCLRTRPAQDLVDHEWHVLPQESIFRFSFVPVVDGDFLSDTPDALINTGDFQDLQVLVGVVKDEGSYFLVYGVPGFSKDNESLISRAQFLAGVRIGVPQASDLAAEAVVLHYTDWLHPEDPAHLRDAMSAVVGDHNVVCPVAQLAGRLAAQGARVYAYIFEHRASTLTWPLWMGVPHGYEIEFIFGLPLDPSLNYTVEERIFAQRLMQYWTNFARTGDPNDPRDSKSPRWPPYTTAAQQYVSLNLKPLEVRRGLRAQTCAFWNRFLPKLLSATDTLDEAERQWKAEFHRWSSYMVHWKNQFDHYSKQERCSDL
Description: Inhibition of AChE in rat cortex using acetylthiocholine iodide as substrate preincubated with enzyme for 10 mins prior to substrate addition by Ellman's colorimetric method

Assay [2] has as its target T1, Acetylcholinesterase. Nature of the assay: Inhibition of AChE in rat cortex using acetylthiocholine iodide as substrate by double Lineweaver-Burk plot analysis.

The IC50 is the concentration that gives 50% inhibition. High values mean a need for much substance, low ones inhibition by little substance. On to `C[N+](C)(Cc1cc(O)c2c(c1)C(=O)c1cccc(O)c1C2=O)c1ccccc1`, for which the IC50 in assay [1] amounted to 25400 nM.

A word on the Ki: it is the dissociation constant of the complex between target and ligand, obtained from inhibition or displacement. Lower therefore signals tighter binding. The compound `O=C1c2cccc(O)c2C(=O)c2c(O)cc(C[n+]3ccccc3)cc21` gave a Ki in assay [2] of 279 nM. Further, inhibition in assay [1] was half-maximal at 90 nM (IC50).

For the compound `C[N+](C)(C)Cc1cc(O)c2c(c1)C(=O)c1cccc(O)c1C2=O`, the midpoint of inhibition in assay [1], the IC50, lay at 3760 nM.

In turn, `COc1cccc2c1C(=O)c1c(OC)cc(C[N+](C)(C)C)cc1C2=O` had a concentration for half-maximal inhibition (IC50) in assay [1] of 540 nM.

In assay [1], `COc1cccc2c1C(=O)c1c(OC)cc(C[N+](C)(C)c3ccccc3)cc1C2=O` gave an IC50 of 13600 nM.

The values above are taken from ChEMBL document CHEMBL2331449, “Synthesis, biological evaluation and molecular modeling of aloe-emodin derivatives as new acetylcholinesterase inhibitors” (Bioorg Med Chem, 2013).
